Experimental data taken from EP2407164A1, “Copper II complexes of phenanthroline and their use in cancer treatment” (Dublin Institute of Technology Intellectual Property Ltd, priority 2010, dated 2012).

What was measured:
[1] = tested on: CT-DNA; assay: DNA-ethidium fluorescence quenching; format: binding, calf; details: Q = equivalent concentration required to reduce fluorescence by 50%; 2.0 µM EtBr, 20 µM DNAp, 2 mM NaOAc buffer, 9.3 mM NaCl, pH 5.0
Protocol: (§1) DNA-Ethidium Fluorescence Quenching. Working solutions containing 20 µM poly[d(AT)]2 (ε260 = 13,100 M(bp)^-1 cm^-1), poly[d(G-C)]2 (ε260 = 16,800 M(bp)^-1 cm^-1) and CT-DNAp (ε260 = 12,824 M(bp)^-1 cm^-1) along with 2.0 µM Et in NaOAc buffer (2 mM NaOAc, 9.3 mM NaCl, 0.1 mM Na2EDTA, pH = 5.0) were prepared. Subsequent experimental steps are identical to the displacement experiment with the exception that a fluorescence reading of 200 arbitrary units with measurements being recorded over a 20-s interval was used. From a plot of the fluorescence vs added drug concentration, the Q values is given by the concentration required to effect 50% removal of the initial fluorescence.

[2] = tested on: HT29; assay: MTT cytotoxicity assay, complex 7; format: cell-based, Human; details: HT29 colon cancer line, 24 hr
Protocol: (§2) For cytotoxicity evaluation HT29, SW480 and SW620 cell lines were employed; all the cell lines were grown in RPMI 1640 media (Fischer). All media were supplemented with 10% foetal bovine serum (FBS) and 45 IU/ml penicillin and 45 µg/ml streptomycin and cells were maintained at 37 °C in a 5% CO2 humidified incubator.
(§3) For sterilisation samples were filtered with a 0.2 micron cellulose acetate filter. For cytotoxicological evaluation all samples were prepared fresh on the day of exposure. A stock concentration of test compound was prepared in the exposure media (10% DMEM F-12) necessary for the cell line under test. This sample was vortexed to ensure a uniform dispersion of the compound under test.
For cytotoxicity assays cells were seeded in 96-well microplates (Nunc, Denmark) at a density of 1 x 10^5 cells/ml for the 24 hr test, 5 x10^4 cells/ml for the 48 hr test and 3 x 10^4 cells/ml for the 96 hr test. […] After 24 h of cell attachment, plates were washed with 100 µl/well phosphate buffered saline (PBS) and the cells were treated with increasing concentrations of each compound for 24 h. […] The plate was shaken at 240 rpm for 10 min and the absorbance was measured at 570 nm.
At least three independent experiments were conducted in triplicate for each cell line and toxicity endpoint. […] Differences between samples and the control were evaluated using the statistical analysis package SPSS 14.0. […]

[3] = tested on: pUC18; assay: Nuclease activity: relaxation of supercoiled plasmid DNA, agarose gel; format: biochemical; details: 37 °C; for concentration at which nuclease activity is seen: supercoiled pUC18, 5 hours, no added H2O2, oxidant or reductant
Protocol: Nuclease Activity. Reactions were carried out in a total volume of 20 µL in 0.1 M cacodylate buffer (pH = 6.0) with either 0.5, 2.5, 10 µL of 40 µM complex or 2, 5, 10 µL of 200 µM of complex, which were initially prepared in DMF, then diluted in cacodylate buffer (in which they dissolved), with 1 µL of 0.25 µg/µL pUC18 in cacodylate buffer. The resulting mixtures contained 1, 5, 10, 20, 50 and 100 µM of complex and […] of pUC18. Samples were incubated for 5 hr at 37°C. Quench buffer (3 µL; 0.25% bromophenolblue, 0.25% xylene cyanole and 30% glycerol) was then added and samples were loaded onto agarose gel (0.8%) containing 1.5 µL/100 mL of solution of GelRed™ (10,000X). Electrophoresis was completed at 80 V for 2 hr in 1XTAE buffer.

[4] = tested on: SW480; assay: MTT cytotoxicity assay, complex 7; format: cell-based; details: SW480 (Dukes' B) colon cancer line, 24 hr
Protocol: as §2, §3
(§4) For cytotoxicity assays cells were seeded in 96-well microplates (Nunc, Denmark) at a density of 1 x 10^5 cells/ml for the 24 hr test, 5 x10^4 cells/ml for the 48 hr test and 3 x 10^4 cells/ml for the 96 hr test. […] After 24 h of cell attachment, plates were washed with 100 µl/well phosphate buffered saline (PBS) and the cells were treated with increasing concentrations of each compound for 24 h. Six replicate wells were used for each control and test concentration per microplate. Following the desired time of compound exposure, control medium or test exposures were removed, the cells were rinsed with PBS and 100 µl of fresh medium (without FBS or supplements) was added to each well. 10 µl of MTT (5 mg/ml) prepared in PBS was then added to each well and the plates were incubated for 3 h at 37°C in a 5% CO2 humidified incubator. After this incubation period the medium was discarded, the cells were washed with 100 µl of PBS and 100 µl of DMSO was added to each well to extract the dye. The plate was shaken at 240 rpm for 10 min and the absorbance was measured at 570 nm.
(§5) At least three independent experiments were conducted in triplicate for each cell line and toxicity endpoint. […] Control values were set as 100%. Differences between samples and the control were evaluated using the statistical analysis package SPSS 14.0. Statistically significant differences were set at p≤0.05.

[5] = tested on: SW620; assay: MTT cytotoxicity assay, complex 7; format: cell-based; details: SW620 (Dukes' C) colon cancer line, 24 hr
Protocol: as §2, §3, §4, §5

[6] = tested on: CT-DNA; assay: Competitive ethidium bromide displacement; format: binding, calf; details: for Kapp (apparent binding constant): Kapp = Ke x 1.26/C50 where Ke = 9.5 x 10^6 M(bp)^-1; for Kapp (apparent binding constant) / IC50: 1.2 µM EtBr, 1 µM CT-DNAp, pH 7.0; for IC50: final volume 2 mL, 10 mM TES, 0.1 mM Na2EDTA, read-out: C50 = concentration required to reduce fluorescence by 50%
Protocol: Competitive Ethidium Displacement. […] Complexes 4-6, actinomycin D, pentamidine isethionate were prepared at 2.0 mM in DMSO. Two millilitres of DNA-Et solution were placed in a 10-mm quartz cuvet (3 mL) and positioned in a temperature controlled (20°C) spectrofluorometer (Perkin Elmer LS55B Luminescence Spectrometer). Excitation and emission wavelengths were set to 546 and 595 nm, respectively. After thermal equilibrium was established the emission and excitation slits were modified to give a fluorescence reading of 50 arbitrary units with measurements being recorded over a 20-s interval. An aliquot of complex or drug solution was taken (0.5 - 10 µL), was added to the cuvette and after equilibration the fluorescence reading was recorded. Repeated aliquots were added until the fluorescence was 20-40% of the initial control. Triplicate titrations were preformed and the apparent binding constants were calculated using Kapp = Ke x 1.26/C50 where Ke = 9.5 x 10^6 M(bp)^-1.

[7] = tested on: DU145; assay: MTT cytotoxicity assay, complexes 1-6; format: cell-based, Human; details: DU145 prostate cancer, 24 hr exposure, mean of three independent experiments +/- standard error
Protocol: (§6) Human colon cancer cell line, HT29 (passage 17 to 30, ATCC, USA), was grown in McCoys's 5a medium supplemented with 2mM L-glutamine and fetal bovine serum (FBS) 10% and containing 100U/ ml penicillin and 100µg / ml streptomycin at 37°C in a humidified atmosphere with 5% CO2 Human Breast Cancer cell line, MCF-7 (passage 16 to 26, ATCC, USA) was grown in Eagle's minimum essential medium containing 2mM L-glutamine, 100U/ ml penicillin,100µg/ ml streptomycin, FBS (10%), 1mM sodium pyruvate and 1% (v/v) non essential amino acids at 37°C in a humidified atmosphere with 5% CO2 Human prostate cancer cell line, DU145 (passage 12 to 29, ATCC, USA) was grown in Eagle's minimum essential medium containing 2mM L-glutamine, 100U/ ml penicillin, 100µg/ ml streptomycin, FBS (10%), 1mM sodium pyruvate and 1% (v/v) non essential amino acids at 37°C in a humidified atmosphere with 5% CO2. All drugs were tested by MTT assay following 24-hour exposure of cells to each compound. Each value represents the mean IC50 of three independent experiments +/- standard error.
(§7) MTT Assay. This method is based on the reduction of the tetrazolium salt, methylthiazolyldiphenyl-tetrazolium bromide (MTT) into a crystalline blue formazan product by the cellular oxidoreductases of viable cells. The resultant formazan crystal formation is proportional to the number of viable cells. Cells were seeded at 4x 10^5 cells/ml in 96-well plates and incubated at 37°C in 5% CO2 for 24 hours. Cells were treated with a four log range of concentration of the test compounds in triplicate from 0.1 to 500 µM or with a solvent control (0.5% DMSO) in complete medium. Following 24 h incubation, cells were incubated with 20 µl of MTT (5 mg/ml) in 0.1 M PBS, pH 7.4 at 37 °C in a humid atmosphere with 5% CO2 for 4 h. Media was then gently aspirated from test cultures and 100 µL of dimethyl sulphoxide (DMSO) was added to all wells. The plates were then shaken for 2 min and the absorbance was read at 550 nm in a Varioscan plate reader. The IC50 was defined as the concentration of test compound required to reduce the absorbance of the MTT-formazan crystals by 50%, indicating 50% cell deactivation.

[8] = tested on: HT29; assay: MTT cytotoxicity assay, complexes 1-6; format: cell-based, Human; details: HT29 colon cancer, 24 hr exposure, mean of three independent experiments +/- standard error
Protocol: as §6, §7

[9] = tested on: MCF-7; assay: MTT cytotoxicity assay, complexes 1-6; format: cell-based, Human; details: MCF-7 breast cancer, 24 hr exposure, mean of three independent experiments +/- standard error
Protocol: as §6, §7

[10] = tested on: poly[d(A-T)]2; assay: DNA-ethidium fluorescence quenching; format: binding; details: Q = equivalent concentration required to reduce fluorescence by 50%; 2.0 µM EtBr, 20 µM DNAp, 2 mM NaOAc buffer, 9.3 mM NaCl, pH 5.0
Protocol: as §1

[11] = tested on: poly[d(G-C)]2; assay: DNA-ethidium fluorescence quenching; format: binding; details: Q = equivalent concentration required to reduce fluorescence by 50%; 2.0 µM EtBr, 20 µM DNAp, 2 mM NaOAc buffer, 9.3 mM NaCl, pH 5.0
Protocol: as §1

[12] = tested on: SK-OV-3; assay: MTT cytotoxicity assay, complexes 1-6; format: cell-based, Human; details: SK-OV-3 ovarian cancer, 24 hr exposure, mean of three independent experiments +/- standard error
Protocol: as §7
Cu(II) bis-phen complexes 4-6 display rapid, low micomolar toxicities against all tumor lines. […] It should be noted that 6 is dinuclear and so contains two active copper units, which may explain this heightened potency.

[13] = tested on: four Human-derived tumor lines; assay: MTT assay, summary statements over the four tumor lines; format: cell-based; details: MCF-7, DU145, SK-OV-3, HT29, 24 hours
Protocol: as §6
MTT Assay. This method is based on the reduction of the tetrazolium salt, methylthiazolyldiphenyl-tetrazolium bromide (MTT) into a crystalline blue formazan product by the cellular oxidoreductases of viable cells. […] The plates were then shaken for 2 min and the absorbance was read at 550 nm in a Varioscan plate reader. […]

[14] = Solubility in organic solvents; details: DMSO/DMF

Substance	IC50 [1] [µM]	Activity LD50 [2] [µM]	'self-activating' nuclease activity (relaxation of SC pUC18), in words ([3]; 1-100 µM complex, 5 hours, no added H2O2 or reductant)	concentration at which nuclease activity is seen [3] [µM]	Activity LD50 [4] [µM]	Activity LD50 [5] [µM]	Kapp (apparent binding constant) [6]	DNA binding ability, in words ([6]; competitive EtBr displacement with CT-DNA)	IC50 [6] [µM]	IC50 [7] [µM]	IC50 [8] [µM]	IC50 [9] [µM]	IC50 [10] [µM]	IC50 [11] [µM]	IC50 [12] [µM]	cytotoxicity against all tumor lines, in words [13]	Solubility [14]
[Cu2(oda)(phen)4](ClO4)2.2.67H2O.C2H5OH [Complex 7]	22.6	9.61	highly efficient in the cleavage of plasmid DNA	≥ 10	11.3	31	2.55x10^5 M(bp)^-1	efficient ability to bind with calf thymus DNA	46.9	–	–	–	–	–	–	–	–
[{Cu{(phen)2}2(terph)](terph)10H2O.3EtOH [Complex 6]	–	–	–	1 to 5	–	–	3.04x10^5 M(bp)^-1	–	39.4	5.7 ± 0.2	5.4 ± 0.3	7.9 ± 0.4	8.55	10.3	6.7 ± 0.4	best broad-spectrum activity	forms only suspensions in DMSO/DMF
